We go through one compound from US6353003B1, “Method for reducing levels of homocysteine and C-reactive protein” (Eli Lilly and Company, priority 1998, dated 2002).

The subject of one assay is homocysteine. In words: Clinical investigation: homocysteine levels after six months versus baseline. The format is in vivo, human. To be noted: postmenopausal women, six months vs patient's baseline, p<0.05. As for the experimental part:
(§1) A clinical investigation was conducted which included 390 women (45-72 years old), who were an average of ten years postmenopausal. These patients were randomly assigned to the following treatment protocol: raloxifene hydrochloride at 60 mg per day via oral administration (cf. Formulation 2, supra), raloxifene at 120 mg per day, or HRT therapy. Homocysteine and C-reactive protein baseline levels were determined, prior to the initiation of therapy. Methods for such determinations are well known and can be found in the references cited, supra. The study was conducted for a period of six months. The levels of homocysteine and C-reactive protein in each patient were compared at the end of six months with that patient's baseline. Results were analyzed by variance. Raloxifene at 60 mg per day lowered levels of homocysteine by 8% (p<0.05) and C-reactive protein by 4% (NS). Raloxifene at 120 mg per day lowered homocysteine by 5.7% (p<0.05) and C-reactive protien by −3.9 (NS).

In a further assay the test system is C-reactive protein. In words: Clinical investigation: C-reactive protein levels after six months versus baseline. The format is in vivo, human. Set-up: lowered C-reactive protein: unit not given here. To be noted: postmenopausal women, six months vs patient's baseline, NS. As to the method:
as §1

In the case of `Cl.O=C(c1ccc(OCCN2CCCCC2)cc1)c1c(-c2ccc(O)cc2)sc2cc(O)ccc12` [Raloxifene, [2-(4-hydroxyphenyl)-6-hydroxybenzo [b]thien-3-yl][4-[2-(1-piperidinyl)ethoxy]phenyl]methanone hydrochloride], in the assay with homocysteine (60 mg per day oral), the “lowered levels of homocysteine” value is recorded as 8%. This compound registered a lowered homocysteine with homocysteine (120 mg per day) of 5.7%. For the same compound, the “lowered levels of C-reactive protein” value in the assay with C-reactive protein (60 mg per day oral) stood at 4%. For the same compound, the “lowered C-reactive protein” value in the assay on C-reactive protein (120 mg per day) was −3.9.
